Measured values as given in PMC9623506, “Development of a novel peptide inhibitor of subtilisin BPN′” (FEBS Open Bio, 2022).
Where two headings read alike, the source gives them in different places. Positions of bridges follow the written chain, without caps; N, C: chain ends. Residues, ends and D or L forms follow the SMILES beside them. No end group written: not given here.

B1: EGL: leech eglin‐C (protein, UniProt P01051 1-70, looked up)
Eglin C: TEFGSELKSFPEVVGKTVDQAREYFTLHYPQYDVYFLPEGSPVTLDLRYNRVRVFYNPGTNVVNHVPHVG
B2: SSI: Streptomyces subtilisin inhibitor (protein, UniProt P01006 32-144, looked up)
Subtilisin inhibitor: DAPSALYAPSALVLTVGKGVSATTAAPERAVTLTCAPGPSGTHPAAGSACADLAAVGGDLNALTRGEDVMCPMVYDPVLLTVDGVWQGKRVSYERVFSNECEMNAHGSSVFAF

Legend:
subtilisin BPN′ [1] = molecular target: T1, subtilisin BPN′ (Bacillus amyloliquefaciens, UniProt P00782); experiment: ASIP without a disulfide bond with subtilisin BPN′: inhibition and cleavage; type: biochemical
T1 construct: purchased Sigma-Aldrich (Tokyo, Japan)
T1 sequence (P00782 108-382): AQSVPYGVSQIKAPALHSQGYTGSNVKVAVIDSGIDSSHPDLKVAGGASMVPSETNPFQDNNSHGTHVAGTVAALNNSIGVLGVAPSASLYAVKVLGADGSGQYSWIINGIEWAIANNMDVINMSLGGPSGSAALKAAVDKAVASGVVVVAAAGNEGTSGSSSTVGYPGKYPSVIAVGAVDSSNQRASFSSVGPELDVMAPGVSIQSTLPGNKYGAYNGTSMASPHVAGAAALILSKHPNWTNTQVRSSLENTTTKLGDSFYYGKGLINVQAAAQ
Description: To clarify the relationship between disulfide bond formation and its activity as a subtilisin inhibitor, we measured the inhibitory activities of ASIP with or without a disulfide bond. […] The inhibitory properties of the oxidized form of ASIP were then investigated.

subtilisin BPN′ [2] = molecular target: T1, subtilisin BPN′; experiment: biochemical; type: biochemical; details: for Inhibitory activity / binding in words, by Ki: synthetic substrate N‐suc‐AAPF‐pNA, compared with prototype ASIP or single mutants
Procedure: Subtilisin BPN′ and N‐succinyl‐Ala‐Ala‐Pro‐Phe‐p‐nitroanilide (N‐suc‐AAPF‐pNA) were purchased from Sigma‐Aldrich (Tokyo, Japan). The oligopeptides used in this study were synthesized by Eurofins Genomics (Tokyo, Japan). The formation of an S‐S bond in each peptide was accomplished by incubating an equimolar amount of cystine with the peptide, and the concentrations of the oxidized peptides were determined by amino acid analyses after hydrolysis of the peptide with 6 M HCl at 110 °C for 24 h in vacuo.
The inhibitory activities of peptides against subtilisin BPN′ were preliminarily measured using the casein‐Folin method. First, casein was incubated with subtilisin BPN′ in the absence or presence of various molar ratios of synthetic peptides at 37 °C and pH 7.0 for 10 min. Trichloroacetic acid was added to the reaction mixture to precipitate the undigested casein, and the supernatant was mixed with sodium carbonate and Folin's phenol reagent. The absorbance at 660 nm was then measured to determine the amount of peptide obtained by digestion. Inhibitory activity was defined as the reduction in the amount of peptides derived from the enzymatic digestion of casein in the presence of a synthetic peptide when compared to the amount of peptides in the absence of synthetic peptides. To determine the K i values, the proteolytic activities of subtilisin BPN′ in the presence of various molar ratios of synthetic peptides were measured using a synthetic substrate, N‐suc‐AAPF‐pNA, as described previously, and then, the K i values were calculated by nonlinear curve fitting using the Morrison equation [13].

subtilisin BPN′ [3] = molecular target: T1, subtilisin BPN′; details: against subtilisin BPN′; cited from earlier work
subtilisin Carlsberg = details: against subtilisin Carlsberg; cited from earlier work
Description: Table 3 Proteinaceous subtilisin inhibitors. Amino acid residue lengths, sequences from the P4 to P4′ positions, and K i values against subtilisin BPN′ or Carlsberg of the inhibitors are listed. The most conserved residues at each position are shown in bold font. Residue numbers at the P1 position are indicated by superscript numbers.

Row | Molecule | Ki (subtilisin BPN′ [2]) [nM] | further results
1 | SDFSCLSEGCRT (cysteine pairing not given here) [ASIP without a disulfide bond, ASIP without the Cys5‐Cys10 disulfide bond] | – | Inhibitory activity against subtilisin BPN′ in words (subtilisin BPN′ [1]; ASIP without a disulfide bond, substrate not stated): lacked inhibitory activity; Cleavage by subtilisin BPN′ (subtilisin BPN′ [1]; reduced / linear form of ASIP, cleaved at the peptide bond between Leu6 and Ser7): specifically cleaved
2 | CC(C)C[C@@H]1NC(=O)[C@@H](NC(=O)[C@H](CO)NC(=O)[C@H](Cc2ccccc2)NC(=O)[C@H](CC(=O)O)NC(=O)[C@@H](N)CO)CSSC[C@@H](C(=O)N[C@@H](CCCNC(=N)N)C(=O)N[C@@H](CCCNC(=N)N)C(=O)O)NC(=O)CNC(=O)[C@H](CCC(=O)O)NC(=O)[C@H](CO)NC1=O [T12R] (H-SDFSCLSEGCRR-OH; disulfide 5-10) | 4.41 ± 0.24 | Inhibitory activity / binding in words, by Ki (subtilisin BPN′ [2]): significantly higher inhibition and binding affinity
3 | CC(C)C[C@@H]1NC(=O)[C@@H](NC(=O)[C@H](CO)NC(=O)[C@H](Cc2ccccc2)NC(=O)[C@H](CC(=O)O)NC(=O)[C@@H](N)CO)CSSC[C@@H](C(=O)N[C@@H](CCCNC(=N)N)C(=O)NCC(=O)O)NC(=O)CNC(=O)[C@H](CCC(=O)O)NC(=O)CNC1=O [S7G + T12G] (H-SDFSCLGEGCRG-OH; disulfide 5-10) | 7.73 ± 0.34 | –
4 | CC(C)C[C@H](NC(=O)[C@H](CCCNC(=N)N)NC(=O)[C@@H]1CSSC[C@H](NC(=O)[C@H](CO)NC(=O)[C@H](Cc2ccccc2)NC(=O)[C@H](CC(=O)O)NC(=O)[C@@H](N)CO)C(=O)N[C@@H](CC(C)C)C(=O)N[C@@H](CO)C(=O)N[C@@H](CCC(=O)O)C(=O)NCC(=O)N1)C(=O)O [T12L] (H-SDFSCLSEGCRL-OH; disulfide 5-10) | 12.9 ± 1.02 | –
5 | CC(C)C[C@@H]1NC(=O)[C@@H](NC(=O)[C@H](CO)NC(=O)[C@H](Cc2ccccc2)NC(=O)[C@H](CC(=O)O)NC(=O)[C@@H](N)CO)CSSC[C@@H](C(=O)N[C@@H](CCCNC(=N)N)C(=O)N[C@H](C(=O)O)[C@@H](C)O)NC(=O)CNC(=O)[C@H](CCC(=O)O)NC(=O)[C@H](C)NC1=O [S7A] (H-SDFSCLAEGCRT-OH; disulfide 5-10) | 2.58 ± 0.2 | –
6 | OMTKY3: turkey ovomucoid third domain | – | Ki (subtilisin BPN′ [3]): 0.023 nM
7 | CC(C)C[C@@H]1NC(=O)[C@@H](NC(=O)[C@H](CO)NC(=O)[C@H](Cc2ccccc2)NC(=O)[C@H](CC(=O)O)NC(=O)[C@@H](N)CO)CSSC[C@@H](C(=O)N[C@@H](CCCNC(=N)N)C(=O)N[C@@H](CCCCN)C(=O)O)NC(=O)CNC(=O)[C@H](CCC(=O)O)NC(=O)[C@H](C)NC1=O [S7A + T12K] (H-SDFSCLAEGCRK-OH; disulfide 5-10) | 0.3 ± 0.02 | –
8 | CC(C)C[C@@H]1NC(=O)[C@@H](NC(=O)[C@H](CO)NC(=O)[C@H](Cc2ccccc2)NC(=O)[C@H](CC(=O)O)NC(=O)[C@@H](N)CO)CSSC[C@@H](C(=O)N[C@@H](CCCNC(=N)N)C(=O)N[C@@H](C)C(=O)O)NC(=O)CNC(=O)[C@H](CCC(=O)O)NC(=O)[C@H](C)NC1=O [S7A + T12A] (H-SDFSCLAEGCRA-OH; disulfide 5-10) | 2.72 ± 0.04 | –
9 | CC(C)C[C@@H]1NC(=O)[C@@H](NC(=O)[C@H](CO)NC(=O)[C@H](Cc2ccccc2)NC(=O)[C@H](CC(=O)O)NC(=O)[C@@H](N)CO)CSSC[C@@H](C(=O)N[C@@H](CCCNC(=N)N)C(=O)N[C@@H](CCCCN)C(=O)O)NC(=O)CNC(=O)[C@H](CCC(=O)O)NC(=O)[C@H](CO)NC1=O [T12K] (H-SDFSCLSEGCRK-OH; disulfide 5-10) | 5.43 ± 0.29 | Inhibitory activity / binding in words, by Ki (subtilisin BPN′ [2]): significantly higher inhibition and binding affinity
10 | CC(C)C[C@@H]1NC(=O)[C@@H](NC(=O)[C@H](CO)NC(=O)[C@H](Cc2ccccc2)NC(=O)[C@H](CC(=O)O)NC(=O)[C@@H](N)CO)CSSC[C@@H](C(=O)N[C@@H](CCCNC(=N)N)C(=O)NCC(=O)O)NC(=O)CNC(=O)[C@H](CCC(=O)O)NC(=O)[C@H](CO)NC1=O [T12G] (H-SDFSCLSEGCRG-OH; disulfide 5-10) | 10.6 ± 0.55 | –
11 | CC(C)C[C@@H]1NC(=O)[C@@H](NC(=O)[C@H](CO)NC(=O)[C@H](Cc2ccccc2)NC(=O)[C@H](CC(=O)O)NC(=O)[C@@H](N)CO)CSSC[C@@H](C(=O)N[C@@H](CCCNC(=N)N)C(=O)N[C@@H](CC(=O)O)C(=O)O)NC(=O)CNC(=O)[C@H](CCC(=O)O)NC(=O)[C@H](CO)NC1=O [T12D] (H-SDFSCLSEGCRD-OH; disulfide 5-10) | 23.1 ± 3.35 | Inhibitory activity / binding in words, by Ki (subtilisin BPN′ [2]): decreased the inhibitory activity
12 | CC(C)C[C@@H]1NC(=O)[C@@H](NC(=O)[C@H](CO)NC(=O)[C@H](Cc2ccccc2)NC(=O)[C@H](CC(=O)O)NC(=O)[C@@H](N)CO)CSSC[C@@H](C(=O)N[C@@H](CCCNC(=N)N)C(=O)N[C@H](C(=O)O)[C@@H](C)O)NC(=O)CNC(=O)[C@H](CCC(=O)O)NC(=O)[C@H](CO)NC1=O [ASIP] (H-SDFSCLSEGCRT-OH; disulfide 5-10) | 13 ± 1.64 | –
13 | CC(C)C[C@@H]1NC(=O)[C@@H](NC(=O)[C@H](CO)NC(=O)[C@H](Cc2ccccc2)NC(=O)[C@H](CC(=O)O)NC(=O)[C@@H](N)CO)CSSC[C@@H](C(=O)N[C@@H](CCCNC(=N)N)C(=O)N[C@@H](C)C(=O)O)NC(=O)CNC(=O)[C@H](CCC(=O)O)NC(=O)[C@H](CO)NC1=O [T12A] (H-SDFSCLSEGCRA-OH; disulfide 5-10) | 17.4 ± 1.42 | –
14 | CC(C)C[C@@H]1NC(=O)[C@@H](NC(=O)[C@H](CO)NC(=O)[C@H](Cc2ccccc2)NC(=O)[C@H](CC(=O)O)NC(=O)[C@@H](N)CO)CSSC[C@@H](C(=O)N[C@@H](CCCNC(=N)N)C(=O)N[C@H](C(=O)O)[C@@H](C)O)NC(=O)CNC(=O)[C@H](CCC(=O)O)NC(=O)CNC1=O [S7G] (H-SDFSCLGEGCRT-OH; disulfide 5-10) | 5.14 ± 0.3 | –
15 | marinostatin (FATMRYPSDSDE) [MST] | – | Ki (subtilisin BPN′ [3]): 1.5 nM
16 | B1 | – | Ki (subtilisin Carlsberg): 0.15 nM
17 | B2 | – | Ki (subtilisin BPN′ [3]): 0.005 nM
